Consider one molecule from US20170027968A1, “ANTI-CANCER AGENT” (KTN BIOTEC, INC., priority 2013, published 2017).

In experiment [1] the test system is Met5A (human non-malignant mesothelioma cell). Description: TUNEL staining, Met5A. The experiment is classed as cell-based. The note with it: 30 μM and 100 μM, 48 hr, FIG. 4. Here is the method: (§1) NCI-H28 which is a cell line of human malignant pleural mesothelioma and […] which is a cell line of human non-malignant mesothelioma were used. These cells were purchased from American Type Culture Collection (Manassas, Va., USA). The cells were cultured in Roswell Park Memorial Institute (RPMI)-1640 medium added with 0.003% (w/v) L-glutamine. The cells were incubated in a medium added with 10% (v/v) heat-inactivated bovine serum, penicillin (final concentration, 100 U/ml) and streptomycin (final concentration, 0.1 mg/ml) in a humid environment under 5% CO2 and 95% air at 37° C. To detect in situ DNA fragmentation to be the index of apoptosis, TUNEL staining was performed using In Situ Apoptosis Detection Kit (Takara Bio; Otsu, Japan). The cells fixed and membrane-permeabilized were incubated with terminal deoxynucleotidyl transferase and fluorescein isothiocyanate (FITC)-deoxyuridinetriphosphate at 37° C. for 90 min. FITC signal was visualized by a confocal laser microscope (LSM 510; Carl Zeiss Co., Ltd., Oberkochen, Germany). The cells used were […] (human non-malignant mesothelioma cell) and NCI-H28 (human malignant mesothelioma cell), after a treatment for 48 hr by changing the concentration of DPPE to 0, 30 μM and 100 μM.

For experiment [2] the test system is unchanged. The experiment is described as follows: Cell viability assay (MTT), Met5A. The experiment is classed as cell-based. The note with it: Met5A, 1, 10, 100 μM, 24 hr or 48 hr; FIG. 3A. The procedure:
(§2) NCI-H28 which is a cell line of human malignant pleural mesothelioma and Met5A which is a cell line of human non-malignant mesothelioma were used. These cells were purchased from American Type Culture Collection (Manassas, Va., USA). The cells were cultured in Roswell Park Memorial Institute (RPMI)-1640 medium added with 0.003% (w/v) L-glutamine. The cells were incubated in a medium added with 10% (v/v) heat-inactivated bovine serum, penicillin (final concentration, 100 U/ml) and streptomycin (final concentration, 0.1 mg/ml) in a humid environment under 5% CO2 and 95% air at 37° C.
(§3) The cell viability was evaluated according to previous report (Nogi Y, et al., Cell Physiol Biochem 2012; 30: 61-74.) by using 3-(4,5-dimethyl-2-thiazolyl)-2,5-diphenyl-2H-tetrazolium bromide (MTT). The measurement was performed by treating Met5A (human non-malignant mesothelioma cell) and NCI-H28 (human malignant mesothelioma cell) for 24 hr or 48 hr while changing the concentration of DPPE to 0, 1 μM, 10 μM and 100 μM.

In another experiment the target is T1, Human PTP1B (GST fused) (Homo sapiens, UniProt P18031).
T1 sequence (P18031 1-435): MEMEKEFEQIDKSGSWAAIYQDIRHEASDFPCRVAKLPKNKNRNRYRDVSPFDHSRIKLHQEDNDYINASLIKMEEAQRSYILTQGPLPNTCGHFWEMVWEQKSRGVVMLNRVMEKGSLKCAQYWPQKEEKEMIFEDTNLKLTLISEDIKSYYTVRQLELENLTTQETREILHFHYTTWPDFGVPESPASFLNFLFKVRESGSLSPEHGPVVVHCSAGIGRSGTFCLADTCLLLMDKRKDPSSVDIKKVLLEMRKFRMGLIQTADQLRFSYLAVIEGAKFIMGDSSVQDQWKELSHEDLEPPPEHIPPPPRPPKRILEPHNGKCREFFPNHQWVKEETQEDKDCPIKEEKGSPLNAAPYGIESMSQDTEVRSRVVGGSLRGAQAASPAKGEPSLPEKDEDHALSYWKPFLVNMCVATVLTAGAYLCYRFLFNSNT
The experiment is described as follows: Assay of PTP1B activity under cell-free conditions (p-NPP substrate). The settings on record: 100 μM, preincubated 37° C. 30 min, p-NPP 10 mM 60 min, FIG. 1B.

Experiment [3] deals with NCI-H28 (human malignant mesothelioma cell). Description: TUNEL staining, NCI-H28. The experiment is classed as cell-based. The settings on record: NCI-H28, 30 μM and 100 μM, 48 hr; FIG. 4. Here is the method: as §1
Another experiment relates to Human recombinant PP2A. Description: Assay of PP2A activity under cell-free conditions (p-NPP substrate). The settings on record: 100 μM, preincubated 37° C. 30 min, p-NPP 0.5 mM 60 min, FIG. 1A.
Experiment [4] deals with NCI-H28 (human malignant mesothelioma cell). Description: Cell viability assay (MTT), NCI-H28. The settings on record: NCI-H28, 1, 10, 100 μM, 24 hr or 48 hr; FIG. 3B. The experiment is classed as cell-based. The procedure: as §2, §3

Each structure is given as a SMILES string.

Text for Human PTP1B (GST fused): (§4) Human recombinant PP2A was purchased from Millipore (Billerica, Mass., USA). Human PTP1B was cloned to pGEX-6P-3 vector having a GST tag on the NH2 terminal, and expressed in competent E. coli 3L21 (DE3) suitable for transformation and protein expression. GST fused PTP1B was affinity-purified using glutathione sepharose 4B (GE Healthcare Bio-Science KK, Tokyo, Japan). They were reacted with p-nitrophenylphosphate (p-NPP) (Sigma, St. Louis, Mo., USA) as a substrate, and each phosphatase activity was measured. PP2A (0.2 U/well) or PTP1B (1 mg/well) was preincubated in a reaction medium at 37° C. for 30 min. in the presence and absence of a phosphatase inhibitor (okadaic acid; 2 nM, sodium vanadate; 1 μM) and, phosphatidylethanolamine (DAPE, DLPE, DOPE, DPPE; 100 μM, all obtained from Avanti Polar Lipids, Inc. (Alabaster, Ala., USA)). • reaction medium for PP2A: 50 mM Tris-HCl, 0.1 mM EGTA, 0.1% (v/v) 2-mercaptoethanol, pH 7.0 • reaction medium for PTP1B: 50 mM HEPES, 1 mM EDTA, 50 mM NaCl, 1 mM dithiothreitol, pH 7.2
(§5) Then, p-NPP (0.5 mM for PP2A, 10 mM for PTP1B) was added to the reaction medium and incubation was continued for 60 min. The reaction was discontinued by adding 0.1N NaOH. Dephosphorylated p-NPP, namely, p-NP, was quantified at absorbance 405 nm by using SpectraMax PLUS384 (Molecular Devices, Sunnyvale, Calif., USA).
Text for Human recombinant PP2A: as §4, §5

As to `CCCCCC/C=C\CCCCCCCC(=O)OC[C@H](COP(=O)(O)OCCN)OC(=O)CCCCCCC/C=C\CCCCCC` [DPPE, 1,2-dipalmitoleoyl-sn-glycero-3-phosphoethanolamine], the “apoptosis (TUNEL-stained cells relative to total cells)” value in experiment [1] is reported as “does not induce apoptosis of the non-malignant mesothelioma cell”; in experiment [3], “induces apoptosis of the malignant mesothelioma cell”. The entries for the “cell survival rate (MTT)” value in experiment [2] and in experiment [4] were “almost uninfluential on the non-malignant mesothelioma cell” and “induces concentration-dependent cell death in the malignant mesothelioma cell”, respectively. The “PTP1B activation enhancing action (phosphatase activity relative to control)” value on Human PTP1B (GST fused) is reported as “PTP1B activation enhancing action”. For the same molecule, the “PP2A activation enhancing action (phosphatase activity relative to control)” value with Human recombinant PP2A is given as “strong PP2A activation enhancing action”.
